Experimental data taken from ChEMBL document CHEMBL1151570, “Preparation and Properties of a fibrinogen receptor antagonist containing the Arg-Gly-Asp sequence and nitroxide radicals” (Bioorg Med Chem Lett, 1993).

Assays:
[1] = species: Homo sapiens; assay: Compound was evaluated for in vitro inhibition of ADP-induced aggregation of human platelet rich plasma; assay type: functional
[2] = molecular target: Integrin alpha-IIb/beta-3 (Homo sapiens, UniProt P05106+P08514); assay: Dissociation constant for platelet glycoprotein alphaIIb-beta3 integrin from human platelets
Chain of Integrin alpha-IIb/beta-3 (P05106 27-788 limits assumed): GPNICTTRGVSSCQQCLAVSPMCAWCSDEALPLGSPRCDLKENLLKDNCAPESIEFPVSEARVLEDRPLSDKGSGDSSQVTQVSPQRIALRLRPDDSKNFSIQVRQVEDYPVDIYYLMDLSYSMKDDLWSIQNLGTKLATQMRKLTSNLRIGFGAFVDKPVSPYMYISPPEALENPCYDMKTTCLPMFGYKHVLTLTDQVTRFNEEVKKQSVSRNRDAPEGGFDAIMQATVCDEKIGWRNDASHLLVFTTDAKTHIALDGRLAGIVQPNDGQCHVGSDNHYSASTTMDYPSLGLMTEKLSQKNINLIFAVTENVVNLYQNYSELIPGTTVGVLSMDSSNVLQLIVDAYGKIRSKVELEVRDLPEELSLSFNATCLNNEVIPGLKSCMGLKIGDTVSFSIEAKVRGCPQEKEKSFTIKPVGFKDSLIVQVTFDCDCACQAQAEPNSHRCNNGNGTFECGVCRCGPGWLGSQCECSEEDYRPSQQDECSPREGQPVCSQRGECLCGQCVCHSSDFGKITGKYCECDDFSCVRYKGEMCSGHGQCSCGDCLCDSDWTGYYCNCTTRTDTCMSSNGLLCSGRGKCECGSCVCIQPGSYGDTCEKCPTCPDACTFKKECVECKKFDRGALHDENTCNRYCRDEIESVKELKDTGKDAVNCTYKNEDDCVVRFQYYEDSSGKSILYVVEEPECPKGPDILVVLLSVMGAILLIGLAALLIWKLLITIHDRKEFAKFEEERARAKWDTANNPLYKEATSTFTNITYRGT
Chain of Integrin alpha-IIb/beta-3 (P08514 32-887 limits assumed): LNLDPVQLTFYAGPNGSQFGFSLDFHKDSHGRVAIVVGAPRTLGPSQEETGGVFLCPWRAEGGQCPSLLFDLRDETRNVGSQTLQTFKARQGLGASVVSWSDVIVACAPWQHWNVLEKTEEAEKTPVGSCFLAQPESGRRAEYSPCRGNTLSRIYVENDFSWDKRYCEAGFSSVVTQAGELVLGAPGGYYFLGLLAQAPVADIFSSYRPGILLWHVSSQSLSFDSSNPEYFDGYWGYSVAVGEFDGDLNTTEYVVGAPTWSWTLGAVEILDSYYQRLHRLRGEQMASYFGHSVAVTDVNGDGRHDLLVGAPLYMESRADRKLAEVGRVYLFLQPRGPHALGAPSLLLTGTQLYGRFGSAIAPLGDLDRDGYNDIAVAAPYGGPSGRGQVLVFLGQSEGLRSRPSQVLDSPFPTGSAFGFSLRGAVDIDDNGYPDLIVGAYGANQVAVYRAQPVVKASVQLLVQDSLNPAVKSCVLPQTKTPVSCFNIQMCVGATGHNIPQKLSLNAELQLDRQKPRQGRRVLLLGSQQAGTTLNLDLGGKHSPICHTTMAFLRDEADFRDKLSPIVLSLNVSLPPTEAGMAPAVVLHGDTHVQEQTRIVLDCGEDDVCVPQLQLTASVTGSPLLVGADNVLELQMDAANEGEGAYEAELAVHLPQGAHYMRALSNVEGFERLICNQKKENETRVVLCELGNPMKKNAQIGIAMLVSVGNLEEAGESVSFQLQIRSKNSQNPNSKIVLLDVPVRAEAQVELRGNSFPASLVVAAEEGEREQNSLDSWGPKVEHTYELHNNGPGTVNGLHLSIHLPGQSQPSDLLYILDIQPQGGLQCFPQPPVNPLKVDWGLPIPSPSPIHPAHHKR
Chain of Integrin alpha-IIb/beta-3 (P08514 891-1039 limits assumed): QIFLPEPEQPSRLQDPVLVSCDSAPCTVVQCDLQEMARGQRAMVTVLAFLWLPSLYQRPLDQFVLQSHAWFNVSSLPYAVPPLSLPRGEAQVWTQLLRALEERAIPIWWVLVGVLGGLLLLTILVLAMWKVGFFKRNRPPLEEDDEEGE

Structure (SMILES)	IC50 [1] [nM]	Ki [2] [µM]
CN(C(=O)c1ccccc1SCC(=O)NC1CC(C)(C)N([O])C(C)(C)C1)[C@@H](CCCN=C(N)N)C(=O)NCC(=O)N[C@@H](C(=O)O)C(=O)Nc1ccccc1SCC(=O)NC1CC(C)(C)N([O])C(C)(C)C1	1020	0.11
CC1(C)CC(NC(=O)CBr)CC(C)(C)N1[O]	> 200000	> 1000
